In patent US12336971B2, “Ophthalmic pharmaceutical compositions and uses thereof” (ALCON INC., priority 2021, dated 2025):
Read-outs that look alike come from different tables or passages of the source.

Columns and labels:
[1] = Equilibrium solubility of WS-12 in compositions / evaluation of solubilizers (HPLC); assay type: physicochemical
Description: As explained above, WS-12 is insoluble in water. Regardless, it was necessary to identify excipients that would provide WS-12 with a solubility of about 200 μM (0.0058%) in an aqueous medium compatible with administration (e.g., topical administration) to a human (e.g., a human eye). Several solubilizers were evaluated, including PEG 400 (polyethylene glycol 400), KOLLIDON 30 (polyvinylpyrrolidone), propylene glycol, TWEEN 80 (polyoxyethylene (20) sorbitan monooleate), KOLLIPHOR® EL or KOLLIPHOR® ELP (polyoxyl 35 castor oil) and tyloxapol (ethylene oxide-formaldehyde-p-octylphenol copolymer).

[2] = Loss of WS-12 concentration on storage in polyolefin containers; assay type: physicochemical
Description: It was discovered that there is an inverse relationship between the crystallinity of the polyolefin and the amount of WS-12 absorbed into the polyolefin when the pharmaceutical composition is stored in contact with the polyolefin at elevated temperatures (e.g. 40° C.). Crystallinity was measured by determining the melting temperature of the polyolefin by DSC, with higher melting temperatures denoting greater crystallinity.
LDPE 1, LDPE 2, LDPE 3, LDPE 4, and LDPE 5 in Table 12 correspond to LDPEs from different suppliers. Melting point values of the polyolefins were experimentally determined by differential scanning calorimetry (DSC). The densities of the polyolefins were as provided by the manufacturer's product data sheet.

[3] = WS-12 content in blow-fill-seal LDPE containers after curing at 40° C. and storage at 25° C.; assay type: physicochemical; settings: Formulation 1 in LDPE BFS units; cured 10 days at 40° C., then stored at 25° C. over 140 days; FIG. 8
Description: The ‘curing’ technique, or process, described herein exploits the temperature dependence of WS-12 absorption into LDPE to yield a product that is stable when stored at 25° C. In some embodiments, the curing technique includes the following steps: (a) producing the BFS containers filled with an ophthalmic pharmaceutical composition provided herein; (b) storing the filled BFS containers at a first temperature (e.g. 40° C.) to drive WS-12 into the LDPE container with the aim of saturating the container walls with WS-12; and (c) subsequently storing the BFS containers at a second temperature (e.g., 25° C.) whereupon further loss of WS-12 to the container walls is stemmed due to the above described saturation process.
(99A long-term 25° C. trace). The first data point of each line represents the content of WS-12 in the BFS article after the curing period (e.g., the first temperature of storage). The amount of WS-12 lost to the LDPE increased as the duration of curing at 40° C. was increased from 1 day to 10 days. […] After a curing period of 10 days at 40° C. (black circles), the content of WS-12 in the BFS units stored at 25° C. was constant over a period of 140 days.

[4] = Chemical stability of WS-12 to typical drug stressors; assay type: physicochemical; settings: typical drug stressors (acid, base, peroxide, heat, light)
[5] = JECFA, cited from earlier work

**Q.** Which WS-12 level dissolved ([1]; KOLLIPHOR EL 3% w/v) does the source give for `COc1ccc(NC(=O)[C@@H]2C[C@H](C)CC[C@H]2C(C)C)cc1` [WS-12, (1R,2S,5R)-2-isopropyl-N-(4-methoxyphenyl)-5-methylcyclohexane-1-carboxamide] here?
**A.** ≥ 200 µM

**Q.** And the “Effect on WS-12 solubility” value ([1]; TWEEN 80, required concentration greater than 4%)?
**A.** significantly increased

**Q.** What about the solubility ([1]; aqueous medium with solubilizer, aqueous with cosolvent or surfactant or cyclodextrin, thermodynamic from solid, KOLLIDON 30 (polyvinylpyrrolidone), read-out: WS-12 level solubilized) of the same molecule?
**A.** < 200 µM

**Q.** What about the solubility ([1]; aqueous ophthalmic composition, 2 °C, aqueous with cosolvent or surfactant or cyclodextrin, thermodynamic from solid, in 3% KOLLIPHOR EL, 0.14% hypromellose, 0.78% Na dihydrogen phosphate dihydrate, 0.55% NaCl, pH 7, 2°-8° C., read-out: WS-12 Solubility (mg/mL) 2°-8° C.) of the same molecule?
**A.** 0.041 mg/mL

**Q.** And the solubility ([1]; aqueous ophthalmic composition, aqueous with cosolvent or surfactant or cyclodextrin, thermodynamic from solid, in 3% KOLLIPHOR EL, 0.14% hypromellose, 0.78% Na dihydrogen phosphate dihydrate, 0.55% NaCl, pH 7, about 17° C., read-out: WS-12 Solubility (mg/mL) Room Temp (about 17° C.))?
**A.** 0.055 mg/mL

**Q.** And the solubility ([1]; propylene glycol, read-out: WS-12 level solubilized)?
**A.** < 200 µM

**Q.** What about the solubility ([1]; tyloxapol, read-out: WS-12 level solubilized) of the same molecule?
**A.** < 200 µM

**Q.** What about the “Percent Loss in WS-12 Concentration After Storage in Polyolefin Container for 2 Weeks at 40° C.” value (from here on “Percent Loss”) ([2]; High Density Polyethylene (HDPE)) of the same molecule?
**A.** 1.3%

**Q.** And the “Percent Loss” value ([2]; Low Density Polyethylene (LDPE 1))?
**A.** 2.8%

**Q.** What about the “Percent Loss” value ([2]; Low Density Polyethylene (LDPE 2)) of the same molecule?
**A.** 2.8%

**Q.** What about the “Percent Loss” value ([2]; Low Density Polyethylene (LDPE 3)) of the same molecule?
**A.** 3.3%

**Q.** What about the “Percent Loss” value ([2]; Low Density Polyethylene (LDPE 4)) of the same molecule?
**A.** 4.0%

**Q.** And the “Percent Loss” value ([2]; Low Density Polyethylene (LDPE 5))?
**A.** 4.5%

**Q.** And the “Percent Loss” value ([2]; Polypropylene (PP))?
**A.** 1.3%

**Q.** And the “Content of WS-12 in the BFS units” value [3]?
**A.** constant

**Q.** And the Chemical stability [4]?
**A.** chemically stable

**Q.** And the “Solubility in avocado oil” value ([5]; avocado oil)?
**A.** sparingly soluble

**Q.** What about the Solubility in ethanol ([5]; ethanol) of the same molecule?
**A.** sparingly soluble

**Q.** What about the Solubility in water ([5]; water) of the same molecule?
**A.** insoluble
